Measurements reported in the supplement of paper PMC10307832.

Experiments:
Test in all cases: relative viability (nuclei count vs DMSO), 5 days (fraction); higher = more cells survive
[1] = compound: CN1CCC(CC1)OC2=CC(=C(C=C2)NC3=NC=C4C(=N3)N(C(=O)N4C)C5CCCC5)OC [AZ3146] + C[C@@H](Oc1cc(-c2cnn(C3CCNCC3)c2)cnc1N)c1c(Cl)ccc(F)c1Cl [Crizotinib] (partner 1 µM)
Method in brief: (§1)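 Relative viability divides the nuclei count in treated wells by that in vehicle wells. Lung cancer cell lines were seeded in 1536-well plates, dosed by pin tool the next day, and fixed and stained after 5 days in one step with final 0.05% Triton X-100, 1% formaldehyde and 1 ug/ml Hoechst. Dosing was a single drug or a fixed anchor-drug dose plus five library-drug doses (not always all listed) in √10 steps, and values are medians of duplicate plates imaged at 4×.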

[2] = compound: CN1CCC(CC1)OC2=CC(=C(C=C2)NC3=NC=C4C(=N3)N(C(=O)N4C)C5CCCC5)OC [AZ3146] + O=C(c1cc(Cc2n[nH]c(=O)c3ccccc23)ccc1F)N1CCN(C(=O)C2CC2)CC1 [Olaparib] (partner 8 µM)
Method in brief: as §1

[3] = compound: CN1CCC(CC1)OC2=CC(=C(C=C2)NC3=NC=C4C(=N3)N(C(=O)N4C)C5CCCC5)OC [AZ3146] + Nc1nc2[nH]cc(CCc3ccc(C(=O)N[C@@H](CCC(=O)O)C(=O)O)cc3)c2c(=O)[nH]1 [Pemetrexed] (partner 0.2 µM)
Method in brief: as §1

[4] = compound: CCOC(=O)CCNc1cc(N2CCc3ccccc3CC2)nc(-c2ccccn2)n1 [GSK-J4] + C[C@]1(O)C[C@@H](c2nc(-c3ccc4ccc(-c5ccccc5)nc4c3)c3c(N)nccn32)C1 [Linsitinib] (partner 1 µM)
Method in brief: as §1

Row | Cell Line | relative viability ([1]; first compound 0.08 µM) | relative viability ([1]; first compound 0.253 µM) | relative viability ([1]; first compound 0.8 µM) | relative viability ([1]; first compound 2.53 µM) | relative viability ([1]; first compound 8 µM) | relative viability ([2]; first compound 0.08 µM) | relative viability ([2]; first compound 0.253 µM) | relative viability ([2]; first compound 0.8 µM) | relative viability ([2]; first compound 2.53 µM) | relative viability ([2]; first compound 8 µM) | relative viability ([3]; first compound 0.08 µM) | relative viability ([3]; first compound 0.253 µM) | relative viability ([3]; first compound 0.8 µM) | relative viability ([3]; first compound 2.53 µM) | relative viability ([3]; first compound 8 µM) | relative viability ([4]; first compound 0.5 µM) | relative viability ([4]; first compound 1.581 µM) | relative viability ([4]; first compound 5 µM) | relative viability ([4]; first compound 15.81 µM) | relative viability ([4]; first compound 50 µM)
1 | RERF-LC-KJ | 0.794 | 0.864 | 0.816 | 0.864 | 0.66 | 0.94 | 0.833 | 0.902 | 0.852 | 0.462 | 0.43 | 0.485 | 0.461 | 0.473 | 0.488 | 0.93 | 0.818 | 0.852 | 0.856 | 0.777
2 | NCI-H1734 | 0.678 | 0.752 | 0.655 | 0.697 | 0.598 | 0.58 | 0.61 | 0.632 | 0.607 | 0.612 | 0.414 | 0.433 | 0.388 | 0.428 | 0.413 | 0.884 | 0.72 | 0.818 | 0.757 | 0.816
3 | NCI-H2126 | 1.05 | 0.992 | 1.06 | 1.07 | 0.989 | 0.908 | 0.898 | 0.897 | 0.967 | 0.862 | 0.613 | 0.662 | 0.618 | 0.677 | 0.696 | 0.735 | 0.705 | 0.732 | 0.677 | 0.725
4 | NCI-H1792 | 0.834 | 1.07 | 1.01 | 0.797 | 1 | 0.351 | 0.522 | 0.384 | 0.42 | 0.434 | 0.606 | 0.871 | 0.68 | 1.04 | 0.701 | 0.543 | 0.296 | 0.518 | 0.465 | 0.635
